Reference: US6294650A, “Inhibition of mammalian telomerase by peptide nucleic acids” (The Board of Regents, University of Texas System, priority 1999, dated 2001)
Read-outs that look alike come from different tables or passages of the source.

Tests used:
[1] = system: human telomerase; experiment: TRAPeze telomerase assay, HME50-5 cell lysate preincubated with PNA (PNA scanning); assay type: biochemical; details: 25° C., 30 min preincubation
Method: The source of telomerase was human immortal primary breast epithelial cell line (HME50-5). Cultured cells (10^5 -10^6) were lysed as recommended in the protocol supplied by Oncor. Cell lysates containing 200 cell equivalents were preincubated at 25° C. for 30 minutes with PNA (0 to 100 μM, diluted in 10 mM Tris pH 8.3 and 10 μg ml^-1 bovine serum albumin (BSA)). PNAs sometime aggregated upon prolonged storage, so PNA stocks were briefly heated to 55° C. prior to addition to assay mixtures to ensure reproducible inhibition. Following preincubation, TRAPeze reaction mixture (20 mM Tris-HCl, pH 8.3, 1.5 mM MgCl2, 63 mM KCl, 0.05% Tween 20, 1 mM EGTA, and 0.01% BSA, 50 μM dNTPs, and primer mix supplied in the kit) was added directly to the mixture of PNA and cell extract. This reaction was incubated at 25° C. for 30 minutes to allow telomerase to elongate the TS primer. […] The tubes were transferred to a PCR thermocycler, and a two-step cycle (30 sec 94° C. and 30 sec 60° C.) was performed 27 times. Samples were analyzed using nondenaturing polyacrylamide gel electrophoresis.
Telomerase products and an internal PCR control were quantitated by phosphorimager analysis (Molecular Dynamics). The lanes were divided into one region encompassing the telomerase products and another including the internal standard signal. The radioisotope density was integrated for each area, and the ratio of telomerase product to internal standard was determined. This value was normalized to a positive control (no PNA added) where the ratio of telomerase products to internal standard was assigned 100% activity. The extent inhibition was plotted against the final PNA concentration used in the preincubation reaction, and these graphs were used to estimate the IC50 values.
These PNAs were incubated with telomerase-containing cell extracts derived from a human immortal primary breast epithelial cell line (HME50-5) and assayed their influence on telomerase activity using the telomere repeat amplification protocol (TRAP) (Holt et al., supra).

[2] = system: complementary DNA oligonucleotides; experiment: Melting temperature of PNA:DNA duplexes, absorbance at 260 nm; assay type: physicochemical; details: PNA with complementary DNA, 20 μM each, 1.0 M phosphate pH 7.6
Method: Determinations were done in a volume of 0.5 mL in a capped cuvette. […] Absorbance was recorded from 25° C. to 90° C. in 4° C. or 5° C. increments using a 2 minute equilibration time between each measurement. DNA oligonucleotides used for measuring Tm values, and their complementary PNAs were as follows; [NT] […] ID NO:31) ([…] ID NO:32) (PNAs 7, 17). Melting temperatures were measured (Tm) of duplexes between PNAs and their DNA complements to ensure that the PNAs used in these studies could form duplexes with complementary sequences at the assay temperature of 25° C. DNA oligonucleotides were used because employment of DNA rather than RNA facilitated analysis of the large number of PNAs that required assay. Comparison to RNA:PNA melting temperatures is justified because Tm 's for PNA:DNA and PNA:RNA hybrids are similar.

[3] = system: human telomerase; experiment: Km app of telomerase for TS primer (TRAP assay with varied TS primer); assay type: biochemical; details: TS primer 0 to 60 nM, 30 min at 25° C.; read-out: apparent binding constant, Km app, of telomerase for TS primer
Method: Telomerase assays were performed essentially as described above with slight modifications. Both the TS and CX primers (0.1 μg) were placed below the wax barrier and the concentration of TS primer was varied from 0 nM to 60 nM, above the wax barrier, in the reaction mixture. The reaction was allowed to proceed for 30 minutes at 25° C. followed by PCR as described. The products were quantitated as described with telomerase activity relative to control plotted versus the TS primer concentration.
To put the efficiency of inhibition into context, the affinity of the TS primer for telomerase was determined. Primer affinity of telomerase was determined by monitoring the level of telomerase activity as a function of concentration of the TS primer. The TS primer is complementary to only three bases of the RNA template of the hTR, and was not initially expected to bind tightly to telomerase. The TRAP assay was performed as described, except that the concentration of the TS primer above the wax barrier was varied from 0 to 60 nM. The concentration of TS primer below the wax barrier was varied to keep the total concentration constant.

Substance | IC50 ([1]; read-out: IC50 (μM), Table 2) [µM] | IC50 ([1]; read-out: IC50 for inhibition of telomerase (text)) [µM] | Tm ° C., Table 2 [2] [°C] | Tm ° C., Table 2 ([2]; listed as 4) [°C] | Km [3] [nM]
PNA 4: PNA, sequence GGGTTAGACAA | 0.01 | 0.01 | 67 | 71 | 
TS primer: oligonucleotide primer that can be extended by telomerase, 5'-AATCCGTCGAGCAGAGTT-3' (further chemistry not given here) |  |  |  |  | 8
PNA 15: PNA, sequence GCCCTTCTCAG (all peptide nucleic acid (PNA)) | 0.5 |  | 56 |  | 
